# Experimental data taken from DBAASP.
# How the values were obtained:
# Assay in all cases: ≥ marks a high value that may be exact or a test limit, other limits are often not marked, values filed in µg/mL are converted to µM
# [1] = test system: Candida albicans ATCC 2002
# [2] = test system: Escherichia coli ATCC 25922
# [3] = test system: Pseudomonas aeruginosa CMCCB 10104
# [4] = test system: Staphylococcus aureus ATCC 25923
# [5] = test system: Corynebacterium xerosis C875
# [6] = test system: Escherichia coli DC2
# [7] = test system: Escherichia coli UB1005
# [8] = test system: Staphylococcus epidermidis C621
# [9] = test system: Bacillus subtilis ATCC 23857
# [10] = test system: Pseudomonas aeruginosa ATCC 9027
# [11] = test system: Staphylococcus aureus ATCC 6538
# [12] = test system: Pseudomonas aeruginosa PAO1
# [13] = test system: Salmonella enterica serovar Typhimurium
# [14] = test system: Escherichia coli K12 MG1655
# [15] = test system: Klebsiella pneumoniae ATCC 700603
SMILES,MIC [1],MIC [2],MIC [3],MIC [4],further results
CC[C@H](C)[C@H](NC(=O)CNC(=O)[C@H](CC(=O)O)NC(=O)[C@H](CC(C)C)NC(=O)[C@H](CC(C)C)NC(=O)CN)C(=O)N[C@@H](CC(C)C)C(=O)N[C@@H](CC(N)=O)C(=O)N[C@@H](C)C(=O)N[C@@H](CC(N)=O)C(=O)N[C@@H](Cc1ccccc1)C(=O)N[C@@H](CC(N)=O)C(=O)N[C@@H](C)C(=O)N[C@@H](C)C(=O)N[C@@H](CCCCN)C(=O)N[C@@H](CO)C(=O)N[C@@H](C)C(=O)NCC(=O)N[C@H](C(=O)N[C@@H](CO)C(=O)N[C@H](C(=O)N[C@@H](CC(C)C)C(=O)N[C@@H](CC(N)=O)C(=O)N[C@@H](C)C(=O)N[C@@H](CC(C)C)C(=O)N[C@@H](CO)C(=O)N[C@H]1CSSC[C@@H](C(=O)O)NC(=O)[C@H]([C@@H](C)O)NC(=O)[C@H](CCCCN)NC(=O)[C@H](CO)NC(=O)[C@H](CC(C)C)NC(=O)[C@H](CCCCN)NC1=O)C(C)C)[C@@H](C)O [GLLDGILNANFNAAKSAGTSVLNALSCKLSKTC],9.28 µM,9.28 µM,9.28 µM,9.28 µM,
C[C@H](NC(=O)[C@H](C)NC(=O)[C@H](C)NC(=O)[C@H](CO)NC(=O)[C@H](C)NC(=O)[C@H](C)NC(=O)[C@H](C)NC(=O)[C@H](CCCCN)NC(=O)[C@@H](N)CCCCN)C(=O)N[C@@H](C)C(=O)N[C@@H](C)C(=O)N[C@@H](CO)C(=O)N[C@@H](C)C(=O)N[C@@H](C)C(=O)N[C@@H](Cc1c[nH]c2ccccc12)C(=O)N[C@@H](C)C(=O)N[C@@H](C)C(=O)N[C@@H](CO)C(=O)N[C@@H](C)C(=O)N[C@@H](C)C(=O)N[C@@H](C)C(=O)N[C@@H](CCCCN)C(=O)N[C@@H](CCCCN)C(=O)N[C@@H](CCCCN)C(=O)N[C@@H](CCCCN)C(N)=O [KKAAASAAAAASAAWAASAAAKKKK],,,,,MIC [5]: ≥ 64 µM; MIC [6]: ≥ 64 µM; MIC [7]: ≥ 64 µM; MIC [8]: ≥ 64 µM
CC[C@H](C)[C@H](NC(=O)[C@H](CCCCN)NC(=O)[C@@H](NC(=O)[C@@H](NC(=O)[C@H](CCCCN)NC(=O)[C@H](CCCCN)NC(=O)[C@@H](NC(=O)[C@@H](NC(=O)[C@H](CCCCN)NC(=O)[C@H](CCCCN)NC(=O)[C@@H](NC(=O)[C@@H](N)CCCCN)[C@@H](C)CC)[C@@H](C)CC)[C@@H](C)CC)[C@@H](C)CC)[C@@H](C)CC)C(N)=O [KIKKIIKKIIKI],,219 µM,,,MIC [9]: 15.1 µM; MIC [10]: 9 µM; MIC [11]: 339 µM
CC[C@H](C)[C@H](NC(=O)[C@H](CCCN=C(N)N)NC(=O)[C@@H](NC(=O)[C@H](CCCN=C(N)N)NC(=O)[C@H](Cc1c[nH]c2ccccc12)NC(=O)[C@H](CCC(N)=O)NC(=O)[C@@H](N)C(C)C)[C@@H](C)CC)C(=O)N[C@@H](C)C(=O)N[C@H](C(=O)N[C@H](C(=O)N[C@@H](CCCN=C(N)N)C(=O)N[C@@H](CCCCN)C(=O)O)[C@@H](C)CC)C(C)C [VQWRIRIAVIRK],,10.4 µM,,10.4 µM,MIC [12]: 20.8 µM; MIC [13]: 10.4 µM
CC[C@H](C)[C@H](NC(=O)[C@H](CC(=O)O)NC(=O)[C@H](Cc1c[nH]c2ccccc12)NC(=O)[C@H](CO)NC(=O)[C@H](CCCN=C(N)N)NC(=O)[C@@H](N)CCCCN)C(=O)N[C@H](C(=O)N[C@@H](CCCCN)C(=O)N[C@@H](CCCCN)C(=O)N[C@@H](Cc1ccc(O)cc1)C(=O)N[C@H](C(=O)NCC(=O)N[C@H](C(=O)N[C@H](C(=O)N[C@H](C(=O)NCC(=O)N[C@H](C(=O)N[C@H](C(=O)N[C@@H](Cc1cnc[nH]1)C(=O)O)[C@@H](C)CC)[C@@H](C)O)C(C)C)C(C)C)C(C)C)C(C)C)C(C)C [KRSWDIVKKYVGVVVGTIH],,,,,MIC [14]: ≥ 58.6 µM
CC[C@H](C)[C@H](NC(=O)[C@H](CCCN=C(N)N)NC(=O)[C@H](Cc1c[nH]c2ccccc12)NC(=O)[C@H](CCC(N)=O)NC(=O)[C@@H](N)CCCCN)C(=O)N[C@@H](CCCN=C(N)N)C(=O)N[C@H](C(=O)N[C@@H](CS)C(=O)N[C@H](C(=O)N[C@H](C(=O)N[C@@H](CCCN=C(N)N)C(=O)N[C@@H](C)C(=O)O)[C@@H](C)CC)C(C)C)C(C)C [KQWRIRVCVIRA],,20.9 µM,,20.9 µM,MIC [12]: 41.9 µM; MIC [13]: 20.9 µM
CC[C@H](C)[C@H](NC(=O)[C@H](CC(C)C)NC(=O)[C@@H](NC(=O)[C@H](Cc1ccccc1)NC(=O)[C@H](CC(C)C)NC(=O)CN)[C@@H](C)O)C(=O)N[C@@H](CCCCN)C(=O)NCC(=O)N[C@@H](C)C(=O)N[C@@H](Cc1ccc(O)cc1)C(=O)N[C@@H](CCCCN)C(=O)N[C@@H](CC(C)C)C(=O)N[C@@H](CC(=O)O)C(=O)N[C@@H](C)C(=O)N1CCC[C@H]1C(=O)N[C@H](C(=O)N[C@H](C(=O)N[C@@H](C)C(=O)N[C@@H](CS)C(=O)N[C@@H](CC(N)=O)C(=O)O)C(C)C)[C@@H](C)O [GLFTLIKGAYKLDAPTVACN],9.59 µM,19.2 µM,19.2 µM,9.59 µM,

# Continued, in another order:
MIC [1],MIC [2],MIC [3],MIC [4],SMILES,further results
4.32 µM,2.16 µM,17.3 µM,4.32 µM,CSCC[C@H](NC(=O)[C@H](CCC(=O)O)NC(=O)[C@H](C)NC(=O)[C@H](C)NC(=O)[C@@H](NC(=O)CNC(=O)[C@H](C)NC(=O)[C@@H](NC(=O)[C@H](Cc1ccccc1)NC(=O)[C@@H]1CCCN1C(=O)[C@@H](N)CC(C)C)C(C)C)C(C)C)C(=O)N[C@@H](CCSC)C(=O)N[C@@H](CCC(N)=O)C(=O)N[C@@H](Cc1cnc[nH]1)C(=O)N[C@H](C(=O)N[C@@H](Cc1ccc(O)cc1)C(=O)N[C@H]1CSSC[C@@H](C(=O)O)NC(=O)[C@H](CCCCN)NC(=O)[C@H](CCCCN)NC(=O)[C@H](CO)NC(=O)[C@H](C)NC(=O)[C@H](C)NC1=O)C(C)C [LPFVAGVAAEMMQHVYCAASKKC],
8.92 µM,> 70.2 µM,8.92 µM,8.92 µM,CC[C@H](C)[C@H](NC(=O)[C@H](CC(N)=O)NC(=O)[C@H](CCCCN)NC(=O)[C@H](CCCCN)NC(=O)[C@@H]1CCCN1C(=O)[C@H](Cc1ccccc1)NC(=O)[C@@H](NC(=O)[C@@H](N)Cc1ccccc1)[C@@H](C)CC)C(=O)N[C@H](C(=O)N[C@@H](CC(N)=O)C(=O)N[C@@H](CO)C(=O)N[C@@H](CC(C)C)C(=O)N[C@@H](Cc1ccccc1)C(=O)NCC(=O)N[C@@H](CCCN=C(N)N)C(=O)O)[C@@H](C)CC [FIFPKKNIINSLFGR],
3.9 µM,3.9 µM,3.9 µM,3.9 µM,CC[C@H](C)[C@H](NC(=O)[C@H](C)NC(=O)[C@H](CC(C)C)NC(=O)[C@H](CC(N)=O)NC(=O)[C@H](CCCCN)NC(=O)[C@H](CC(C)C)NC(=O)[C@@H](NC(=O)[C@H](CC(=O)O)NC(=O)[C@H](CC(C)C)NC(=O)[C@H](Cc1ccccc1)NC(=O)[C@@H](N)CO)[C@@H](C)O)C(=O)N[C@@H](CO)C(=O)N[C@@H](C)C(=O)N[C@@H](C)C(=O)N[C@@H](CCCCN)C(=O)NCC(=O)N[C@@H](C)C(=O)NCC(=O)N[C@@H](CCC(N)=O)C(=O)N[C@@H](CO)C(=O)N[C@H](C(=O)N[C@@H](CC(C)C)C(=O)N[C@@H](CO)C(=O)N[C@H](C(=O)N[C@@H](CC(C)C)C(=O)N[C@@H](CO)C(=O)N[C@H]1CSSC[C@@H](C(=O)O)NC(=O)[C@H]([C@@H](C)O)NC(=O)[C@H](CCCCN)NC(=O)[C@H](CO)NC(=O)[C@H](CC(C)C)NC(=O)[C@H](CCCCN)NC1=O)[C@@H](C)O)C(C)C [SFLDTLKNLAISAAKGAGQSVLSTLSCKLSKTC],
,9.3 µM,,,CC[C@H](C)[C@H](NC(=O)CN)C(=O)N[C@@H](CC(C)C)C(=O)N[C@@H](CCCCN)C(=O)N[C@@H](CCCCN)C(=O)N[C@H](C(=O)N[C@@H](CC(C)C)C(=O)N[C@@H](CCCCN)C(=O)N[C@@H](CCCCN)C(=O)N[C@H](C(=O)N[C@@H](CC(C)C)C(=O)N[C@@H](CCCCN)C(=O)N[C@@H](CCCCN)C(=O)N[C@@H](CC(C)C)C(N)=O)[C@@H](C)CC)[C@@H](C)CC [GILKKILKKILKKL],MIC [9]: 1.6 µM; MIC [10]: 5.8 µM; MIC [11]: 5.2 µM
,8 µM,,32 µM,CC[C@H](C)[C@H](NC(=O)[C@H](CCCCN)NC(=O)[C@H](CCCCN)NC(=O)[C@H](C)NC(=O)[C@@H](NC(=O)[C@H](C)NC(=O)[C@H](CC(C)C)NC(=O)[C@H](CC(C)C)NC(=O)[C@H](C)NC(=O)[C@H](CCCCN)NC(=O)[C@H](C)NC(=O)[C@H](CC(N)=O)NC(=O)[C@@H](N)CC(C)C)C(C)C)C(=O)N[C@@H](CC(C)C)C(N)=O [LNAKALLAVAKKIL],MIC [9]: 8 µM; MIC [15]: 32 µM; MIC [10]: 32 µM
